Experimental data reported in patent US6037447A, “Glycopeptide compounds” (priority 1998, dated 2000).

Key:
[1] = test system: Staphylococcus aureus X778; assay: Standard broth micro-dilution MIC, Staphylococcus aureus X778; assay type: cell-based
Procedure: (§1) The minimal inhibitory concentrations (MICs) were determined using a standard broth micro-dilution assay.

[2] = test system: Staphylococcus aureus 446; assay: Standard broth micro-dilution MIC, Staphylococcus aureus 446; assay type: cell-based
Procedure: as §1

[3] = test system: Enterococcus faecium 180-1; assay: Standard broth micro-dilution MIC, Enterococcus faecium 180-1; assay type: cell-based
Procedure: as §1

[4] = test system: Staphylococcus aureus 491; assay: Standard broth micro-dilution MIC, Staphylococcus aureus 491; assay type: cell-based
Procedure: as §1

[5] = test system: Staphylococcus haemolyticus 415; assay: Standard broth micro-dilution MIC, Staphylococcus haemolyticus 415; assay type: cell-based
Procedure: as §1

[6] = test system: Staphylococcus aureus SA119913; assay: Standard broth micro-dilution MIC, Staphylococcus aureus SA119913; assay type: cell-based
Procedure: as §1

[7] = test system: Enterococcus faecalis 2041; assay: Standard broth micro-dilution MIC, Enterococcus faecalis 2041; assay type: cell-based
Procedure: as §1

[8] = test system: Staphylococcus aureus 489; assay: Standard broth micro-dilution MIC, Staphylococcus aureus 489; assay type: cell-based
Procedure: as §1

[9] = test system: Staphylococcus aureus SA1199A; assay: Standard broth micro-dilution MIC, Staphylococcus aureus SA1199A; assay type: cell-based
Procedure: as §1

[10] = test system: Staphylococcus aureus SA1199; assay: Standard broth micro-dilution MIC, Staphylococcus aureus SA1199; assay type: cell-based
Procedure: as §1

[11] = test system: Streptococcus pneumoniae P1; assay: Standard broth micro-dilution MIC, Streptococcus pneumoniae P1; assay type: cell-based
Procedure: as §1

[12] = test system: Haemophilus influenzae RD; assay: Standard broth micro-dilution MIC, Haemophilus influenzae RD; assay type: cell-based
Procedure: as §1

[13] = test system: Enterococcus faecalis 276; assay: Standard broth micro-dilution MIC, Enterococcus faecalis 276; assay type: cell-based
Procedure: as §1

[14] = test system: vancomycin-resistant enterococci; assay: In Vitro Activity Against Enterococci, vancomycin-resistant strains; assay type: cell-based; conditions: representative vancomycin-resistant enterococci (Enterococcus faecium and Enterococcus faecalis)
Procedure: as §1

[15] = test system: vancomycin-sensitive enterococci; assay: In Vitro Activity Against Enterococci, vancomycin-sensitive strains; assay type: cell-based, Enterococcus faecium and Enterococcus faecalis; conditions: representative vancomycin-sensitive enterococci (Enterococcus faecium and Enterococcus faecalis)
Procedure: as §1

Enterococcus faecium 180 = assay: Standard broth micro-dilution MIC, Enterococcus faecium 180; assay type: cell-based
Procedure: as §1

[16] = test system: Staphylococcus aureus 447; assay: Standard broth micro-dilution MIC, Staphylococcus aureus 447; assay type: cell-based
Procedure: as §1

Escherichia coli EC14 = assay: Standard broth micro-dilution MIC, Escherichia coli EC14; assay type: cell-based
Procedure: as §1

[17] = test system: Staphylococcus aureus S13E; assay type: cell-based
Procedure: as §1

[18] = test system: Staphylococcus aureus X400; assay: Standard broth micro-dilution MIC, Staphylococcus aureus X400; assay type: cell-based
Procedure: as §1

[19] = test system: Staphylococcus haemolyticus 105; assay: Standard broth micro-dilution MIC, Staphylococcus haemolyticus 105; assay type: cell-based
Procedure: as §1

[20] = test system: Enterococcus gallinarum 245; assay: Standard broth micro-dilution MIC, Enterococcus gallinarum 245; assay type: cell-based
Procedure: as §1

[21] = test system: Staphylococcus epidermidis 270; assay: Standard broth micro-dilution MIC, Staphylococcus epidermidis 270; assay type: cell-based
Procedure: as §1

[22] = test system: Streptococcus pyogenes C203; assay: Standard broth micro-dilution MIC, Streptococcus pyogenes C203; assay type: cell-based
Procedure: as §1

Substance | MIC [1] [µg/mL] | MIC [2] [µg/mL] | MIC [3] [µg/mL] | MIC [4] [µg/mL] | MIC [5] [µg/mL] | MIC [6] [µg/mL] | MIC [7] [µg/mL] | MIC [8] [µg/mL] | MIC [9] [µg/mL] | MIC [10] [µg/mL] | MIC [11] [µg/mL] | MIC [12] [µg/mL] | MIC [13] [µg/mL] | mean geometric MIC, Vancomycin Resistant Strains [14] [µg/mL] | mean geometric MIC, Vancomycin Sensitive Strains [15] [µg/mL] | MIC (Enterococcus faecium 180) [µg/mL] | MIC [16] [µg/mL] | MIC (Escherichia coli EC14) [µg/mL] | MIC [17] [µg/mL] | MIC [18] [µg/mL] | other results
N^4 -(4-(8-(p-formylphenoxy)-n-octyloxy)benzyl)A82846B [Compound 47] | 8 | 8 | 1 | 16 | 16 | 8 | 2 | 4 | 0.5 | 16 | ≤ 0.06 | > 64 | 8 | 2.8 | 1.0 | 0.5 | 8 | > 64 | 16 | 8 | MIC [19]: 8 µg/mL; MIC [20]: 16 µg/mL; MIC [21]: 4 µg/mL; MIC [22]: ≤ 0.06 µg/mL
N^4 -(4-(12-(p-formylphenoxy)-n-dodecyloxy)benzyl)A82846B [Compound 48] | 32 | > 64 | 8 | 32 | > 64 | 32 | 8 | 32 | 16 | 32 | 4 | > 64 | 32 | 8.0 | 5.2 | 64 | > 64 | > 64 | 32 | 32 | MIC [19]: > 64 µg/mL; MIC [20]: > 64 µg/mL; MIC [21]: > 64 µg/mL; MIC [22]: 2 µg/mL
